Molecules are shown by their SMILES.

This note sets out measurements from patent US20260060908A1, “USE OF FATTY ACIDS FOR MICROBIOME BENEFIT AND COMPOSITIONS COMPRISING THE SAME” (Conopco, Inc., d/b/a UNILEVER, priority 2022, published 2026).

The first assay has as its system S. epidermidis. Description: Growth of S. epidermidis in the presence of fatty acids (absorbance 620 nm growth curve). Type of assay: cell-based. The settings on record: Staphylococcus epidermidis; oleic acid, linoleic acid at 0.01% and their combination; control = 100; read-out: % increase over control. Here is the method: Experiments were carried out on the growth of S. Epidermidis in the presence of various fatty acids using the following procedure.
(§1) The microorganism (S. epidermidis or S. hominis as the case may be) was streaked on TSA agar plate and incubated at 37° C. for 24 hr
(§2) The test samples (200 μl) were added to 96 well plate, followed by addition of above set cultures (20 μl).
(§3) The 96 well plate was placed in a Tecan reader and absorbance was read at 620 nm for a period of 24-30 h with a kinetic interval of 1 h
(§4) The values obtained is plotted as a growth curve with X-axis representing time in hour and Y-axis as absorbance read at 620 nm.
On to `CCCCC/C=C\C/C=C\CCCCCCCC(=O)O` [Example 12, Linoleic acid], for which the activity at 0.01 % is 132%.

As to `CCCCCCCC/C=C\CCCCCCCC(=O)O` [Example 11, Oleic acid], the activity at 0.01 % was determined as 135%.

The same assay, now with this note: Staphylococcus epidermidis; unsaturated fatty acids at 0.001%; at the end of 24 to 30 hours; control = 100.0; read-out: % increase over control.
With `CCCCCC/C=C\CCCCCCCC(=O)O` [Example G, Palmitoleic acid, reference compound], the activity at 0.001 % turned out to be 98.4%.

As to `CCCCC/C=C\C/C=C\CCCCCCCC(=O)O` [Example 8, Linoleic acid], the activity at 0.001 % is 146%. The same measure, in the same setting: then `CCCCCCCC/C=C\CCCCCCCC(=O)O` [Example 7, Oleic acid], with 132%.

The test system of another assay is S. Hominis. Description: Growth of S. hominis in the presence of fatty acids (absorbance 620 nm growth curve). Conditions: saturated fatty acids, concentration per example, at the end of 24 to 30 hours, control = 100.0. Type of assay: cell-based. Here is the method:
• 5% of fatty acid stock is made in DMSO-0.5 g in 10 ml of DMSO • 2.68% of fatty acid (Total volume 5 ml) is made with 2.68 ml of 5% fatty acid stock+[…] of DMSO+0.45 ml of Tween 80. • Test samples: 50 μl 2.68% stock in 4.95 ml 1/10th diluted TSB (test samples)
as §1
Plate cultures of the microorganism was used to set up 0.3 OD620nm (corresponding to log 10^8 CFU/ml) in 1× PBS (pH7.4)
as §2, §3, §4
Experiments similar to those in Table-1 were carried out except that the microorganism used was S. Hominis.
Take `CCCCCCCCCCCCCCCCCCCCCCCC(=O)O` [Example 6, lignoceric acid]: the “% increase over control” value is 153.0%. Same read-out and setting: the result for `CCCCCCCCCCCC(=O)O` [D, Lauric acid] reads 63.0%. For the compound `CCCCCCCCCCCCCCCCCCCC(=O)O` [Example 5, arachidic acid], the “% increase over control” value was 123.0%. Same read-out and setting: then `CCCCCCCCCCCCCC(=O)O` [E, myristic acid], with 52.0%. Turning to `CCCCCCCCCCCCCCCC(=O)O` [Example F, palmitic acid], the “% increase over control” value stood at 104.0%.
